Results taken from BindingDB's records for doi:10.1124/jpet.302.1.328 (University of North Carolina at Chapel Hill, 2002).
Values joined by “and” are separate entries in the source; they are usually repeats but may differ in a detail not shown here. Identical values can stand only once.

target: Histamine H1 receptor (Cavia porcellus, UniProt P31389)
Sequence (P31389 whole entry): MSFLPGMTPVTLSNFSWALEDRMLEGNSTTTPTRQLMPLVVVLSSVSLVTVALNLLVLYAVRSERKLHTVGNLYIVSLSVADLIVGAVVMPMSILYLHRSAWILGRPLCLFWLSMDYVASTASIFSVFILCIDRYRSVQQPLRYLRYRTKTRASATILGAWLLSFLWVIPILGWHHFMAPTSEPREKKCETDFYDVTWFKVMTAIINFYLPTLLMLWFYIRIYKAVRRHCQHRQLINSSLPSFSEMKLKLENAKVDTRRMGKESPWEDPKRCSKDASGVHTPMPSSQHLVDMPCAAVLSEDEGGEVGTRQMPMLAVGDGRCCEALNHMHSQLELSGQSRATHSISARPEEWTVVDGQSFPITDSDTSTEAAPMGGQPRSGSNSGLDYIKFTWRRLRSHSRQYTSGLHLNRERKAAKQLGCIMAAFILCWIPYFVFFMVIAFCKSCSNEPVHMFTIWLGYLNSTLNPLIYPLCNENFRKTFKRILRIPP

SMILES | Ki
CN(C)[C@H]1Cc2ccccc2[C@H](c2ccccc2)C1 [trans-H2-PAT(+)] | 23 nM and 11.5 nM
CN(C)[C@H]1Cc2ccccc2[C@@H](c2ccccc2)C1 [cis-H2-PAT(-)] | 3.92 nM and 4.91 nM
CN(C)C1Cc2ccccc2C(c2ccccc2)C1 (stereo not drawn) [cis-H2-PAT(+/-)] | 10.9 nM and 7.87 nM and 1.53 nM and 1.37 nM
Nc1nc2c(ncn2[C@@H]2O[C@H](COP(=O)(O)OP(=O)(O)OP(=O)(O)O)C(O)C2O)c(=O)[nH]1 (stereo partly drawn) [+ 1 mM GTP] | > 10000 nM
CN(C)[C@@H]1Cc2ccccc2[C@H](c2ccccc2)C1 [cis-H2-PAT(+)] | 53.8 nM and 77.7 nM
Cc1ccc(/C(=C\CN2CCCC2)c2ccccn2)cc1 [Actahist] | 0.93 nM and 0.69 nM
O=C(O)C=CC(=O)Oc1ccc(Cl)cc1 [NSC_6445134] | 98 nM and 80.1 nM
CN(C)[C@@H]1Cc2ccccc2[C@@H](c2ccccc2)C1 [trans-PAT] | 1.15 nM and 0.58 nM
